Patent US12310975B2, “Modulators of BCL6 proteolysis and associated methods of use” (Arvinas Operations, Inc., priority 2019, dated 2025)
Read-outs that look alike come from different tables or passages of the source.

Molecular target: BCL6 (Homo sapiens (Human), UniProt P41182)
Test: Immunofluorescence high content imaging of BCL6 degradation in T47D cells
Assay type: cell-based
Conditions: for DC50: class symbols A-D, read-out: EC50 (nM)*
How it was run: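 T47D, 3 d compound exposure, 11-pt 3-fold series, top 0.1 or 1 μM final. Fix 4% PFA, Triton permeabilize, anti-BCL6 primary overnight 4 °C, Alexa-488 secondary. High-content imaging 10×, 4 fields/well, top-hat smoothing.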

CN1CC[C@@H](Oc2cc3cc(Nc4nc(N5CCC(CN6CCN(c7ccc8c(c7)C(=O)N(C7CCC(=O)NC7=O)C8=O)CC6)CC5)ncc4Cl)ccc3n(C)c2=O)C1=O (stereo partly drawn) [compound 258, 5-(4-((1-(5-chloro-4-((1-methyl-3-(((R)-1-methyl-2-oxopyrrolidin-3-yl)oxy)-2-oxo-1,2-dihydroquinolin-6-yl)amino)pyrimidin-2-yl)piperidin-4-yl)methyl)piperazin-1-yl)-2-(2,6-dioxopiperidin-3-yl)isoindoline-1,3-dione]
IC50: ≥ 100 nM

CNC(=O)COc1cc2cc(Nc3nc(N4CCN(CC5CCN(c6cccc7c6C(=O)N(C6CCC(=O)NC6=O)C7=O)CC5)CC4)ncc3Cl)ccc2n(C(C)C)c1=O (stereo not shown) [compound 311, 2-{[6-({5-chloro-2-[4-({1-[2-(2,6-dioxopiperidin-3-yl)-1,3-dioxo-2,3-dihydro-1H-isoindol-4-yl]piperidin-4-yl}methyl)piperazin-1-yl]pyrimidin-4-yl}amino)-2-oxo-1-(propan-2-yl)-1,2-dihydroquinolin-3-yl]oxy}-N-methylacetamide]
IC50: < 10 nM
Dmax (T47D): ≥ 70%

CNC(=O)COc1cc2cc(Nc3nc(N4CCC(OCCOCCOCCOCCOCCNc5cccc6c5C(=O)N(C5CCC(=O)NC5=O)C6=O)CC4)ncc3Cl)ccc2n(C)c1=O (stereo not shown) [compound 69, 2-((6-((5-chloro-2-(4-((14-((2-(2,6-dioxopiperidin-3-yl)-1,3-dioxoisoindolin-4-yl)amino)-3,6,9,12-tetraoxatetradecyl)oxy)piperidin-1-yl)pyrimidin-4-yl)amino)-1-methyl-2-oxo-1,2-dihydroquinolin-3-yl)oxy)-N-methylacetamide]
DC50: > 100 nM

CNC(=O)COc1cc2cc(Nc3nc(N4CCC(O[C@H]5C[C@H](N6CCC(c7ccc8c(c7)C(=O)N(C7CCC(=O)NC7=O)C8=O)CC6)C5)CC4)ncc3Cl)ccc2n(C(C)C)c1=O (stereo partly shown) [compound 403, 2-({6-[(5-chloro-2-{4-[(1r,3r)-3-{4-[2-(2,6-dioxopiperidin-3-yl)-1,3-dioxo-2,3-dihydro-1H-isoindol-5-yl]piperidin-1-yl}cyclobutoxy]piperidin-1-yl}pyrimidin-4-yl)amino]-2-oxo-1-(propan-2-yl)-1,2-dihydroquinolin-3-yl}oxy)-N-methylacetamide]
Dmax (T47D cells): 50 to 70%
IC50 (T47D cells): < 10 nM

CN1C(=O)CCc2cc(Nc3cc(N4CCC(OCCOCCOCCOCCOCCOc5ccc6c(c5)CN(C5CCC(=O)NC5=O)C6=O)CC4)c([N+](=O)[O-])cc3Cl)ccc21 (stereo not shown) [compound 105, 3-(5-((14-((1-(4-chloro-5-((1-methyl-2-oxo-1,2,3,4-tetrahydroquinolin-6-yl)amino)-2-nitrophenyl)piperidin-4-yl)oxy)-3,6,9,12-tetraoxatetradecyl)oxy)-1-oxoisoindolin-2-yl)piperidine-2,6-dione]
DC50: > 100 nM

CNC(=O)COc1cc2cc(Nc3nc(N4CCC(OC5CCN(c6cccc7c6C(=O)N(C6CCC(=O)NC6=O)C7=O)CC5)CC4)ncc3Cl)ccc2n(C(C)C)c1=O (stereo not shown) [compound 293, 2-{[6-({5-chloro-2-[4-({1-[2-(2,6-dioxopiperidin-3-yl)-1,3-dioxo-2,3-dihydro-1H-isoindol-4-yl]piperidin-4-yl}oxy)piperidin-1-yl]pyrimidin-4-yl}amino)-2-oxo-1-(propan-2-yl)-1,2-dihydroquinolin-3-yl]oxy}-N-methylacetamide]
IC50: 10 to 50 nM
Dmax (T47D): 50 to 70%

CNC(=O)COc1cc2cc(Nc3nc(N4CCC(CN5CCC(c6coc(C(=O)NC7CCC(=O)NC7=O)c6)CC5)CC4)ncc3Cl)ccc2n(C)c1=O (stereo not shown) [compound 286, 4-[1-({1-[5-chloro-4-({1-methyl-3-[(methylcarbamoyl)methoxy]-2-oxo-1,2-dihydroquinolin-6-yl}amino)pyrimidin-2-yl]piperidin-4-yl}methyl)piperidin-4-yl]-N-(2,6-dioxopiperidin-3-yl)furan-2-carboxamide]
IC50: 50 to 100 nM
Dmax (T47D): < 50%

CNC(=O)COc1cc2cc(Nc3nc(N4CCC(OCCOCCNc5cccc6c5C(=O)N(C5CCC(=O)NC5=O)C6=O)CC4)ncc3Cl)ccc2n(C)c1=O (stereo not shown) [compound 75, 2-((6-((5-chloro-2-(4-(2-(2-((2-(2,6-dioxopiperidin-3-yl)-1,3-dioxoisoindolin-4-yl)amino)ethoxy)ethoxy)piperidin-1-yl)pyrimidin-4-yl)amino)-1-methyl-2-oxo-1,2-dihydroquinolin-3-yl)oxy)-N-methylacetamide]
DC50: 50 to 100 nM

CCC(C1CCN(c2ccc3c(c2)C(=O)N(C2CCC(=O)NC2=O)C3=O)CC1)N1CCN(c2ncc(Cl)c(Nc3ccc4c(c3)cc(OCC(=O)NC)c(=O)n4C)n2)CC1 (stereo not shown) [compound 337, 2-{[6-({5-chloro-2-[4-(1-{1-[2-(2,6-dioxopiperidin-3-yl)-1,3-dioxo-2,3-dihydro-1H-isoindol-5-yl]piperidin-4-yl}propyl)piperazin-1-yl]pyrimidin-4-yl}amino)-1-methyl-2-oxo-1,2-dihydroquinolin-3-yl]oxy}-N-methylacetamide]
Dmax (T47D cells): < 50%

CNC(=O)COc1cc2cc(Nc3nc(N4CCC(OCCOCCOCCOCCOCCOc5ccc6c(c5)CN(C5(C)CCC(=O)NC5=O)C6=O)CC4)ncc3Cl)ccc2n(C)c1=O (stereo not shown) [compound 84, 2-((6-((5-chloro-2-(4-((14-((2-(3-methyl-2,6-dioxopiperidin-3-yl)-1-oxoisoindolin-5-yl)oxy)-3,6,9,12-tetraoxatetradecyl)oxy)piperidin-1-yl)pyrimidin-4-yl)amino)-1-methyl-2-oxo-1,2-dihydroquinolin-3-yl)oxy)-N-methylacetamide]
DC50: 10 to 50 nM

CNC(=O)COc1cc2cc(Nc3nc(N4CCC(CN5CCC(c6cccc(N7CCC(=O)NC7=O)c6)CC5)CC4)ncc3Cl)ccc2n(C(C)C)c1=O [compound 416, 2-{[6-({5-chloro-2-[4-({4-[3-(2,4-dioxo-1,3-diazinan-1-yl)phenyl]piperidin-1-yl}methyl)piperidin-1-yl]pyrimidin-4-yl}amino)-2-oxo-1-(propan-2-yl)-1,2-dihydroquinolin-3-yl]oxy}-N-methylacetamide]
IC50 (T47D cells): ≥ 100 nM

CC(=O)COc1cc2cc(Nc3nc(N4CCC(OCCOC5CCN(c6ccc7c(c6)C(=O)N(C6CCC(=O)NC6=O)C7=O)CC5)C4)ncc3Cl)ccc2n(C)c1=O (stereo not shown) [compound 180, 5-(4-(2-((1-(5-chloro-4-((1-methyl-2-oxo-3-(2-oxopropoxy)-1,2-dihydroquinolin-6-yl)amino)pyrimidin-2-yl)pyrrolidin-3-yl)oxy)ethoxy)piperidin-1-yl)-2-(2,6-dioxopiperidin-3-yl)isoindoline-1,3-dione]
IC50: ≥ 100 nM

CNC(=O)COc1cc2cc(Nc3nc(N4CCC(CN5CCC(c6ccc(C(=O)NC7CCC(=O)NC7=O)o6)CC5)CC4)ncc3Cl)ccc2n(C)c1=O (stereo not shown) [compound 361, 5-[1-({1-[5-chloro-4-({1-methyl-3-[(methylcarbamoyl)methoxy]-2-oxo-1,2-dihydroquinolin-6-yl}amino)pyrimidin-2-yl]piperidin-4-yl}methyl)piperidin-4-yl]-N-(2,6-dioxopiperidin-3-yl)furan-2-carboxamide]
Dmax (T47D cells): < 50%
IC50 (T47D cells): 10 to 50 nM

CCn1c(=O)c(OCC(=O)NC)cc2cc(Nc3nc(N4CCC(OC5CN(CC6CN(c7ccc8c(c7)C(=O)N(C7CCC(=O)NC7=O)C8=O)C6)C5)CC4)ncc3Cl)ccc21 (stereo not shown) [compound 309, 2-[(6-{[5-chloro-2-(4-{[1-({1-[2-(2,6-dioxopiperidin-3-yl)-1,3-dioxo-2,3-dihydro-1H-isoindol-5-yl]azetidin-3-yl}methyl)azetidin-3-yl]oxy}piperidin-1-yl)pyrimidin-4-yl]amino}-1-ethyl-2-oxo-1,2-dihydroquinolin-3-yl)oxy]-N-methylacetamide]
IC50: 10 to 50 nM
Dmax (T47D): 50 to 70%

CNC(=O)COc1cc2cc(Nc3nc(NCCc4ccc(C(=O)NC5CCC(=O)NC5=O)nc4)ncc3Cl)ccc2n(C(C)C)c1=O (stereo not shown) [compound 373, 5-(2-{[5-chloro-4-({3-[(methylcarbamoyl)methoxy]-2-oxo-1-(propan-2-yl)-1,2-dihydroquinolin-6-yl}amino)pyrimidin-2-yl]amino}ethyl)-N-(2,6-dioxopiperidin-3-yl)pyridine-2-carboxamide]
IC50 (T47D cells): ≥ 100 nM

CNC(=O)COc1cc2cc(Nc3nc(N4CCC5(CC4)CN(CC4CCN(c6cccc7c6C(=O)N(C6CCC(=O)NC6=O)C7=O)CC4)C5)ncc3Cl)ccc2n(C(C)C)c1=O (stereo not shown) [compound 385, 2-{[6-({5-chloro-2-[2-({1-[2-(2,6-dioxopiperidin-3-yl)-1,3-dioxo-2,3-dihydro-1H-isoindol-4-yl]piperidin-4-yl}methyl)-2,7-diazaspiro[3.5]nonan-7-yl]pyrimidin-4-yl}amino)-2-oxo-1-(propan-2-yl)-1,2-dihydroquinolin-3-yl]oxy}-N-methylacetamide]
Dmax (T47D cells): 50 to 70%
IC50 (T47D cells): < 10 nM

CNC(=O)COc1cc2cc(Nc3nc(N4CCC(Oc5ccc(OCCCOCCOCCOc6ccc7c(c6)CN(C6CCC(=O)NC6=O)C7=O)cc5)CC4)ncc3Cl)ccc2n(C)c1=O (stereo not shown) [compound 96, 2-((6-((5-chloro-2-(4-(4-(3-(2-(2-((2-(2,6-dioxopiperidin-3-yl)-1-oxoisoindolin-5-yl)oxy)ethoxy)ethoxy)propoxy)phenoxy)piperidin-1-yl)pyrimidin-4-yl)amino)-1-methyl-2-oxo-1,2-dihydroquinolin-3-yl)oxy)-N-methylacetamide]
DC50: > 100 nM

CNC(=O)COc1cc2cc(Nc3nc(N4CCC(c5cn(CCOCCOCCOCCOCCOc6ccc7c(c6)C(=O)N(C6CCC(=O)NC6=O)C7=O)nn5)CC4)ncc3Cl)ccc2n(C)c1=O (stereo not shown) [compound 121, 2-((6-((5-chloro-2-(4-(1-(14-((2-(2,6-dioxopiperidin-3-yl)-1,3-dioxoisoindolin-5-yl)oxy)-3,6,9,12-tetraoxatetradecyl)-1H-1,2,3-triazol-4-yl)piperidin-1-yl)pyrimidin-4-yl)amino)-1-methyl-2-oxo-1,2-dihydroquinolin-3-yl)oxy)-N-methylacetamide]
DC50: 50 to 100 nM
